Laboratory results as given in ChEMBL document CHEMBL1142171, “Identification and structural characterization of I84C and I84A mutations that are associated with high-level resistance to human immunodeficiency virus protease inhibitors and impair viral replication” (2007).

Experiments:
Type in all cases: functional, HEK293
[1] = test system: Human immunodeficiency virus 1; experiment: Antiviral activity against HIV1 C9 isolate with protease I84C mutation in HEK 293 cells relative to wild type
[2] = test system: Human immunodeficiency virus 1; experiment: Antiviral activity against HIV1 A2 isolate with protease I84A mutation in HEK 293 cells relative to wild type
[3] = test system: Human immunodeficiency virus 1; experiment: Antiviral activity against HIV1 A11 isolate with protease I84A mutation in HEK 293 cells relative to wild type
[4] = test system: Human immunodeficiency virus 1; experiment: Antiviral activity against HIV1 C3 isolate with protease I84C mutation in HEK 293 cells relative to wild type
[5] = test system: Human immunodeficiency virus 1; experiment: Resistance to HIV1 with protease 46M, 54I and I84C mutation in HEK 293 cells relative to similar background
[6] = test system: Human immunodeficiency virus 1; experiment: Antiviral activity against HIV1 C7 isolate with protease I84C mutation in HEK 293 cells relative to wild type
[7] = test system: Human immunodeficiency virus 1; experiment: Antiviral activity against HIV1 C6 isolate with protease I84C mutation in HEK 293 cells relative to wild type
[8] = test system: Human immunodeficiency virus 1; experiment: Antiviral activity against HIV1 A15 isolate with protease I84A mutation in HEK 293 cells relative to wild type
[9] = test system: Human immunodeficiency virus 1; experiment: Antiviral activity against HIV1 A4 isolate with protease I84A mutation in HEK 293 cells relative to wild type
[10] = test system: Human immunodeficiency virus 1; experiment: Antiviral activity against HIV1 A13 isolate with protease I84A mutation in HEK 293 cells relative to wild type
[11] = test system: Human immunodeficiency virus 1; experiment: Antiviral activity against HIV1 A10 isolate with protease I84A mutation in HEK 293 cells relative to wild type
[12] = test system: Human immunodeficiency virus 1; experiment: Antiviral activity against HIV1 C2 isolate with protease I84C mutation in HEK 293 cells relative to wild type
[13] = test system: Human immunodeficiency virus 1; experiment: Antiviral activity against HIV1 A7 isolate with protease I84A mutation in HEK 293 cells relative to wild type
[14] = test system: Human immunodeficiency virus 1; experiment: Antiviral activity against HIV1 C1 isolate with protease I84C mutation in HEK 293 cells relative to wild type
[15] = test system: Human immunodeficiency virus 1; experiment: Antiviral activity against HIV1 C5 isolate with protease I84C mutation in HEK 293 cells relative to wild type
[16] = test system: Human immunodeficiency virus 1; experiment: Antiviral activity against HIV1 A12 isolate with protease I84A mutation in HEK 293 cells relative to wild type
[17] = test system: Human immunodeficiency virus 1; experiment: Antiviral activity against HIV1 A8 isolate with protease I84A mutation in HEK 293 cells relative to wild type
[18] = test system: Human immunodeficiency virus 1; experiment: Antiviral activity against HIV1 C8 isolate with protease I84C mutation in HEK 293 cells relative to wild type
[19] = test system: Human immunodeficiency virus 1; experiment: Resistance to HIV1 with protease 46I/L, 54I and I84C mutation in HEK 293 cells relative to similar background
[20] = test system: Human immunodeficiency virus 1; experiment: Antiviral activity against HIV1 A14 isolate with protease I84A mutation in HEK 293 cells relative to wild type
[21] = test system: Human immunodeficiency virus 1; experiment: Resistance to HIV1 with protease 46I, 54M/V and I84A mutation in HEK 293 relative to similar background
[22] = test system: Human immunodeficiency virus 1; experiment: Resistance to HIV1 with protease 46M, 54I and I84V mutation in HEK 293 cells relative to similar background
[23] = test system: Human immunodeficiency virus 1; experiment: Antiviral activity against HIV1 C11 isolate with protease I84C mutation in HEK 293 cells relative to wild type
[24] = test system: Human immunodeficiency virus 1; experiment: Antiviral activity against HIV1 A5 isolate with protease I84A mutation in HEK 293 cells relative to wild type
[25] = test system: Human immunodeficiency virus 1; experiment: Antiviral activity against HIV1 A3 isolate with protease I84A mutation in HEK 293 cells relative to wild type
[26] = test system: Human immunodeficiency virus 1; experiment: Antiviral activity against HIV1 A1 isolate with protease I84A mutation in HEK 293 cells relative to wild type
[27] = test system: Human immunodeficiency virus 1; experiment: Antiviral activity against HIV1 A9 isolate with protease I84A mutation in HEK 293 cells relative to wild type
[28] = test system: Human immunodeficiency virus 1; experiment: Antiviral activity against HIV1 A6 isolate with protease I84A mutation in HEK 293 cells relative to wild type
[29] = test system: Human immunodeficiency virus 1; experiment: Antiviral activity against HIV1 C10 isolate with protease I84C mutation in HEK 293 cells relative to wild type
[30] = test system: Human immunodeficiency virus 1; experiment: Resistance to HIV1 with protease 46I, 54I and I84V mutation in HEK 293 cells relative to similar background
[31] = test system: Human immunodeficiency virus 1; experiment: Resistance to HIV1 with protease 46I, 54I and I84A mutation in HEK 293 cells relative to similar background
[32] = test system: Human immunodeficiency virus 1; experiment: Antiviral activity against HIV1 C4 isolate with protease I84C mutation in HEK 293 cells relative to wild type
[33] = test system: Human immunodeficiency virus 1; experiment: Resistance to HIV1 with protease 46I, 54V and I84V mutation in HEK 293 cells relative to similar background

| Structure (SMILES) | Fold change [1] | Fold change [2] | Fold change [3] | Fold change [4] | Fold change [5] | Fold change [6] | Fold change [7] | Fold change [8] | Fold change [9] | Fold change [10] | Fold change [11] | Fold change [12] | Fold change [13] | Fold change [14] | Fold change [15] | Fold change [16] | Fold change [17] | Fold change [18] | Fold change [19] | Fold change [20] | other results |
| --- | --- | --- | --- | --- | --- | --- | --- | --- | --- | --- | --- | --- | --- | --- | --- | --- | --- | --- | --- | --- | --- |
| CC(C)c1nc(CN(C)C(=O)N[C@H](C(=O)N[C@@H](Cc2ccccc2)C[C@H](O)[C@H](Cc2ccccc2)NC(=O)OCc2cncs2)C(C)C)cs1 [RITONAVIR] | 20 | 85 | 73 | 10 | 10 | 60 | 22 | 400 | 42 | 400 | 400 | 8.6 | 141 | 1.6 | 15 | 400 | 86 | 14 | 18 | 105 | Fold change [21]: >400; Fold change [22]: 6.7; Fold change [23]: 15; Fold change [24]: 54; Fold change [25]: 76; Fold change [26]: 60; Fold change [27]: 167; Fold change [28]: 34; Fold change [29]: 29; Fold change [30]: 11; Fold change [31]: 74; Fold change [32]: 9.1; Fold change [33]: 49 |
| CC(C)CN(C[C@@H](O)[C@H](Cc1ccccc1)NC(=O)O[C@H]1CCOC1)S(=O)(=O)c1ccc(N)cc1 | 30 | 31 | 47 | 8.6 | 8.6 | 23 | 64 | 30 | 32 | 43 | 400 | 5.4 | 74 | 1.7 | 20 | 400 | 252 | 12 | 21 | 141 | Fold change [21]: 74; Fold change [22]: 4; Fold change [23]: 18; Fold change [24]: 28; Fold change [25]: 43; Fold change [26]: 32; Fold change [27]: 33; Fold change [28]: 21; Fold change [29]: 53; Fold change [30]: 9; Fold change [31]: 33; Fold change [32]: 10; Fold change [33]: 36 |
